From ChEMBL document CHEMBL1201862, “PubChem BioAssay data set” (2004)
Values belong to the molecule of their own block, whether it stands above or below them. Active and inactive are the calls of the source.

What was measured:
[1] = test system: H9c2; assay: cells; type: functional, cell-based; settings: Rattus norvegicus, H9c2, Myocardium;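 further: confirmatory concentration-response retest of ultra-high-throughput screening hits for modulation of myocardial damage; cell death induced by hydrogen peroxide oxidative stress; compound pretreatment for 60 min then peroxide exposure for 2 h; potency is for protecting the cells against peroxide damage rather than for killing them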
[2] = Trypanosoma cruzi growth suppression in host cells – NIH3T3 host cells, beta-gal luminescence, confirmation (AID 2044); type: functional, cell-based;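 further: intracellular parasites grown in NIH/3T3 mouse fibroblasts as host cells; luminescent beta-galactosidase reporter signal from transgenic T. cruzi replicating inside host cells; inhibitors lower the luminescence signal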
[3] = NIH3T3 cell viability loss – ATP luminescence, mouse fibroblasts, counter-screen, dose response (AID 2010); type: functional, cell-based;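 further: cells exposed to compound for about 90 hours before reading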
[4] = biological target: T1, Cytochrome P450 1A2 (Homo sapiens, UniProt P05177);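 further: PubChem cytochrome P450 panel assay, CYP1A2 panel member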
T1 sequence (P05177 whole entry): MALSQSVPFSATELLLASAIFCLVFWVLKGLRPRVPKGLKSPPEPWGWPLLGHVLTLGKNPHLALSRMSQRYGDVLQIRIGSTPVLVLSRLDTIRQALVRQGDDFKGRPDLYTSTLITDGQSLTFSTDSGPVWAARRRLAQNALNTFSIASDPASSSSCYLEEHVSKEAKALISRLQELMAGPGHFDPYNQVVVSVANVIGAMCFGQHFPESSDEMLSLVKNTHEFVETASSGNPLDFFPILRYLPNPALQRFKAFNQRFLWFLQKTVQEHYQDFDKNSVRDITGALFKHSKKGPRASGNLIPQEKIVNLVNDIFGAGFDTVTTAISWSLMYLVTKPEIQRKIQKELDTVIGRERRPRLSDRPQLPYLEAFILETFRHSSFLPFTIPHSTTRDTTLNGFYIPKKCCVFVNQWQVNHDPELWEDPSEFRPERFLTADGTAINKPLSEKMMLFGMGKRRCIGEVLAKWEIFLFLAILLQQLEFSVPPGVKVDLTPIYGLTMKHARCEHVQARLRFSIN

[5] = biological target: Cytochrome P450 2C9 (Homo sapiens, UniProt P11712)
[6] = biological target: Cytochrome P450 2C19 (Homo sapiens, UniProt P33261); assay: Cytochrome panel assay with activity outcomes. Panel member name: p450-cyp2c19 Compounds with AC50 equal or less than 10 uM are considered active; type: functional
[7] = Luminescence Cell-Based Dose Retest to Confirm Inhibitors of Cancer Stem Cells. [Related pubchem assays (depositor defined):AID2717, AID2721]; type: functional; settings: Homo sapiens

Sequence of Cytochrome P450 2C9 (P11712 whole entry): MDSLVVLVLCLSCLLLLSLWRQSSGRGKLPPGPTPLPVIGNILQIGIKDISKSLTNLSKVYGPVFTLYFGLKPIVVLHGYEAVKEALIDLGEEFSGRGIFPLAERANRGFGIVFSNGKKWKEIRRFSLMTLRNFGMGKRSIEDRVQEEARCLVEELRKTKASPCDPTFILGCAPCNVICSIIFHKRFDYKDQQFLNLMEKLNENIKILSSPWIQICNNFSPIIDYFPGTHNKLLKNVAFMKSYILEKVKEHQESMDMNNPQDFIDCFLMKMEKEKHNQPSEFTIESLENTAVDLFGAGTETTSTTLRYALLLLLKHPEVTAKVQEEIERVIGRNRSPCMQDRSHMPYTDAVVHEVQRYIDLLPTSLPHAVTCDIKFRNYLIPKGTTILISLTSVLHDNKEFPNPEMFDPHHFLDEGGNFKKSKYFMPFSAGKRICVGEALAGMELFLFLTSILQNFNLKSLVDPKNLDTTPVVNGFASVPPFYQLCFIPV
Sequence of Cytochrome P450 2C19 (P33261 whole entry): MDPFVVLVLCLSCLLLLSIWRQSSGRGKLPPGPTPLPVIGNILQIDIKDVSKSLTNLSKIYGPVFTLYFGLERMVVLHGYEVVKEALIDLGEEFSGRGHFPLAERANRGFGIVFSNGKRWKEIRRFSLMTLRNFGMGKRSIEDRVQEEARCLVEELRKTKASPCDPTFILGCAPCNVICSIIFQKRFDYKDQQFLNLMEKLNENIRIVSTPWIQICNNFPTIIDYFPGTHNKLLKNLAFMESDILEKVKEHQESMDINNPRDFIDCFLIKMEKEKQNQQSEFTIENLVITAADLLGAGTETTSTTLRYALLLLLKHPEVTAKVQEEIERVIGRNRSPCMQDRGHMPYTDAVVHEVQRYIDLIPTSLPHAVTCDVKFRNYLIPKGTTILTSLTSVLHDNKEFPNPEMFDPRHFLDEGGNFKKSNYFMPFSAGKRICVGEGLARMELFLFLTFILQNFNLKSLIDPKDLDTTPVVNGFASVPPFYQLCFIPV

Compound: COc1ccc(CNn2c(-c3cccs3)nc3ccccc3c2=O)cc1OC
- IC50 [1]: 8.92 µM (active)

Compound: CCOC(=O)CSc1nc(O)c2c(C)c(C)sc2n1
- IC50 [1]: 10.2 µM (active)

Compound: CCOC(=O)c1cnc2ccc(OCC)cc2c1N1CCN(c2ccccc2OC)CC1
- EC50 [2]: 1.19 µM (active)
- EC50 [3]: > 60 µM (not active)

Compound: CN(C)CCCNC(=O)c1ccc(Cl)c(S(=O)(=O)N(C)c2ccccc2)c1
- EC50 [2]: 0.524 µM (active)
- EC50 [3]: > 60 µM (not active)

Compound: COc1cc(-c2nnc(-c3cc(-c4ccccc4)nc4ccccc34)o2)cc(OC)c1OC
- IC50 [1]: 10.5 µM (active)

Compound: CN(CC(=O)Nc1ccccc1Cl)C(=O)CCc1nc(O)c2ccccc2n1
- IC50 [1]: 23.8 µM (active)

- AC50 [4]: 5.01 µM (inconclusive)
Compound: O=C(Nc1ccccc1C(=O)O)c1ccc2ccccc2n1

Compound: CCOC(=O)Cc1csc(SCc2cc(=O)oc3cc(O)ccc23)n1
- IC50 [1]: > 79 µM (inactive)

Compound: CC(=O)c1ccccc1OCCCN1CCCCC1
- IC50 [1]: > 79 µM (inactive)

Compound: O=C(c1ccc(-c2ccccc2)cc1)C1CCCN(Cc2ccncc2)C1 (centres undefined)
- EC50 [2]: 1.47 µM (active)
- EC50 [3]: > 60 µM (not active)

- AC50 [5]: 0.794 µM (inconclusive)
Compound: COc1ccc(CNc2ncnc3ccc(-c4ccccc4C#N)cc23)c(OC)c1

Compound: CC(C)CN(C(=O)c1ccc([N+](=O)[O-])s1)c1c(N)n(Cc2ccccc2)c(=O)[nH]c1=O
- EC50 [2]: 0.783 µM (active)
- EC50 [3]: > 60 µM (not active)

- AC50 [5]: 15.8 µM (inconclusive)
- AC50 ([6]; read-out: AC50): 31.6 µM (inconclusive)
Compound: Cn1cc(-c2nc3cncnc3n(CCN)c2=O)c2ccccc21

Compound: COc1cc(OC)cc(-c2sc3ccc(OC)cc3c2-c2ccc3cc[nH]c3c2)c1
- AC50 [7]: 1.87 µM (active)

Compound: O=C(CNC(=O)c1cccc(F)c1)N/N=C/c1cc(Br)ccc1OC(=O)/C=C/c1ccco1
- IC50 [1]: > 79 µM (inactive)

- AC50 [4]: 20 µM (inconclusive)
Compound: CCNc1ncc2nc(-c3ccc(F)cc3)c(=O)n(Cc3ccc(F)cc3)c2n1

Compound: CCN(CC)CCN(C(=O)c1ccc2c(c1)OCCO2)c1nc2ccc(C)cc2s1
- EC50 [2]: 0.457 µM (active)
- EC50 [3]: > 60 µM (not active)

Compound: CC(=O)Nc1cccc(/C(C)=N/NC(=O)c2cccs2)c1
- IC50 [1]: > 79 µM (inactive)

- AC50 ([6]; read-out: AC50): 1 µM (inconclusive)
Compound: COC(=O)c1c(-c2ccccc2)csc1NC(=O)CSc1ncnc2sc(C)c(C)c12

Compound: NS(=O)(=O)c1ccc(NC(=O)Nc2cccc3ccccc23)cc1
- AC50 [4]: 1 µM (inconclusive)

- AC50 [5]: 0.0631 µM (inconclusive)
- AC50 [4]: 3.55 µM (inconclusive)
Compound: COc1ccccc1NC(=O)CSc1nc2ccccc2cc1Cc1ccccc1

- AC50 [4]: 25.1 µM (inconclusive)
Compound: CC(=O)NCCNc1cc(-c2ccccc2C(F)(F)F)ncn1

- AC50 ([6]; read-out: AC50): 0.631 µM (inconclusive)
Compound: COc1cccc(C(CC(=O)Nc2cccc3ccccc23)NC(=O)c2ccccc2)c1 (centres undefined)

Compound: O=C(/C(=N/Nc1cccc(C(F)(F)F)c1)C(=O)C(F)(F)F)c1cccs1
- AC50 [7]: 1.76 µM (active)

- AC50 [5]: 39.8 µM (inconclusive)
Compound: COc1cc(CNC(C)(C)CO)ccc1OCC(=O)Nc1ccc(Br)cc1

- AC50 [5]: 28.2 µM (inconclusive)
Compound: COC(=O)c1sccc1NC(=O)CN(C)NS(=O)(=O)c1ccc(F)cc1

Compound: COc1ccc(-c2cc(-c3nnc(COC(=O)C4CC4C)o3)c3ccccc3n2)cc1OC (centres undefined)
- IC50 [1]: 8.29 µM (active)

Compound: O=C(CSc1nc(O)c2ccccc2n1)c1ccccc1
- IC50 [1]: > 79 µM (inactive)

Compound: CC(=O)O/C(=C1/C[C@H]2[C@@H]3CC=C4C[C@@H](OC(C)=O)CC[C@]4(C)[C@@H]3CC[C@]2(C)C1=O)C(F)(F)F
- AC50 [5]: 3.16 µM (inconclusive)
- AC50 [4]: 5.01 µM (inconclusive)

Compound: N#Cc1cc2ccccc2nc1SCC(=O)Nc1ccc(S(=O)(=O)N2CCCC2)cc1
- EC50 [2]: 2.83 µM (active)
- EC50 [3]: 9.37 µM (active)

Compound: COc1ccc(OC)c(-c2nnc3n2N=C(c2ccc(OC(F)F)c(OCC4CC4)c2)CS3)c1
- AC50 [7]: 7.23 µM (active)

Compound: O=C(Cn1ccnc1[N+](=O)[O-])NCCO [ETANIDAZOLE]
- AC50 [6]: inconclusive

- AC50 [4]: 0.126 µM (inconclusive)
Compound: COC(=O)c1nnn(Cc2ccccc2)c1N

Compound: Cc1cccc(/N=C/c2c(O)ccc3oc4c(c23)CCCC4)n1
- IC50 [1]: > 79 µM (inactive)

- AC50 ([6]; read-out: AC50): 1.78 µM (inconclusive)
Compound: CC(=O)Nc1ccc(-c2cc(-c3ccc(NC(C)=O)cc3)nc(-c3ccccc3)n2)cc1
